5 compounds from paper PMC12195967, “Cobalt(II) Complexes of 4′–Nitro–Fenamic Acid: Characterization and Biological Evaluation” (Molecules, 2025) can be followed below.

Each structure is given as a SMILES string. Read-outs that look alike come from different tables or passages of the source. A value given as a limit tells only on which side of the number the result lay.

One assay can be described thus: DPPH radical scavenging. Conditions: compounds 0.1 mM, DPPH 0.1 mM in ethanol. The procedure:
Antioxidant compounds able to neutralize DPPH radicals are increasingly recognized due to their capability of combating cancer, slowing down the aging process and regulating inflammation. As a result, they could potentially offer protection against rheumatoid arthritis and inflammation. […] In this experiment, NDGA and BHT were used as reference compounds and measurements took place at 30 min and 60 min. […] Such low scavenging activity of DPPH radicals is rather common for metal–NSAID complexes.
S1 Antioxidant activity assay
The antioxidant activity of the compound was evaluated via the ability to scavenge in vitro free radicals such as DPPH and ABTS and to reduce H2O2. All the experiments were carried out at least in triplicate and the standard deviation of absorbance was less than 10% […]
S1.1 Determination of the reducing activity of the radical DPPH
To an ethanolic solution of DPPH (0.1 mM) an equal volume solution of the compounds (0.1 mM) in ethanol was added. Absolute ethanol was also used as control solution. The absorbance at 517 nm was recorded at room temperature after 30 and 60 min in order to examine the possible existence of a potential time−dependence of the DPPH radical scavenging activity.[1] The DPPH−scavenging activity of the compounds was expressed as the percentage reduction of the absorbance values of the initial DPPH solution (DPPH%). NDGA and BHT were used as reference compounds. […]

Another assay deals with CT DNA. Briefly: DNA-melting temperature of CT DNA in presence of the compounds. In kind it is binding, calf. Conditions: compound–DNA ratio 1:50; for Tm of CT DNA in the presence of the compound: CT DNA alone Tm 80.7 °C; for ΔTm of CT DNA: versus CT DNA alone 80.7 °C. From the text: In order to further clarify the interaction mode of the compounds with CT DNA, the effect of the temperature of this interaction was also investigated. Within this context, the thermal denaturation of DNA in the presence of the compounds was studied with UV-vis spectroscopy in order to calculate (via a sigmoidal fitting of the experimental data) the DNA-melting temperature (Tm), i.e., the temperature at which half of double-stranded DNA is denatured (“melted”) to single-stranded DNA.
S3 Binding studies with CT DNA
In order to study the interaction of the compounds with DNA, the compound was initially dissolved in DMSO (1 mM). Mixing of such solutions with the aqueous buffer solutions of DNA used in the studies never exceeded 5% DMSO (v/v) in the final solution, which was needed due to low aqueous solubility of most compounds. In all experiments, the effect of DMSO on the data has been taken into consideration and the appropriate corrections have been performed. The interaction of the compound with CT DNA was monitored by UV−vis spectroscopy, and viscosity measurements, and via competitive studies with EB by fluorescence emission spectroscopy. […]
S3.2 Determination of the DNA–melting temperature (Tm)
The UV–vis spectra of a CT DNA solution (1.25×10–4 M) in the presence of the compounds (2.5×10–6 M) were recorded upon increasing the temperature. The obtained data are presented as normalized absorbance at 260 nm (Normalized A(260 nm)) versus temperature (T (ºC)). A sigmoidal fitting of the data was applied for each compound and the melting temperature Tm (temperature with normalized absorbance of 0.5) was determined. […]

In assay [1] the test system is Bacillus subtilis ATCC 6633. Briefly: Antibacterial activity, MIC. In kind it is cell-based. As to conditions: 24 h incubation, 37°C; for MIC: read-out: MIC, B. subtilis. From the text: (§1) In order to evaluate the antimicrobial activity of the synthesized 4′–NO2–fenH and its Co(II) complexes 1–4, two Gram-positive (B. subtilis and S. aureus) and two Gram-negative (X. campestris and E. coli) strains were used. In general, the increased antimicrobial activity of the complexes is attributed to five main factors: (i) the chelation effect of the ligands, (ii) the chemical nature of the ligands, (iii) the nature and the nuclearity of the metal center, (iv) the total charge of the complex and (v) the presence and nature of counter ions. […]
(§2) S2 Antibacterial Activity studies
(§3) The antibacterial activity of the compounds was evaluated by determining their respective MIC values towards two Gram–(–) (Escherichia coli XL1 (E. coli) and Xanthomonas campestris ATCC 1395 (X. campestris)) and two Gram–(+) (Staphylococcus aureus ATCC 29213 (S. aureus) and Bacillus subtilis ATCC 6633 (B. subtilis)) bacterial species. Cultures of these microbial strains were grown on a rich selective agar medium and stored at 4°C. The selective media used were Nutrient Agar or Broth for B. subtilis and S. aureus, Yeast Mold Agar or Broth for X. campestris and Luria Agar or Broth for E. coli. Cells picked from the surface of the stored cultures were used to initiate liquid pre–cultures of the same selective medium at an initial turbidity of roughly 1 McFarland unit.
(§4) Pre–cultures were incubated for 24 h in a rotary shaking incubator and subsequently they were used to inoculate the test cultures used for the determination of MIC at an initial turbidity of 0.5 McFarland units. The test cultures consisted of Mueller–Hinton broth (Deben Diagnostics Ltd) containing different concentrations of the compounds. Different concentrations were achieved as follows: the compounds were freshly dissolved in DMSO to a concentration of 1 mg/mL, and they were diluted with DMSO, using the method of progressive double dilution. Therefore, working solutions with decreasing concentrations of the compounds under investigation were achieved.
(§5) The working solutions were subsequently diluted to the final desired concentration by addition to the growth medium at a proportion of 2:98. MIC values were determined as the lowest concentrations of the tested compounds that inhibited visible growth of each respective organism after a 24 h incubation. Bacterial growth was determined by measuring the turbidity of appropriately diluted cultures at 600 nm with reference to equally diluted sterile growth medium and the inhibition achieved was calculated by comparing the turbidity of each culture to the average of the turbidity of three non–inhibited cultures. All test cultures were grown in triplicates and for the determination of MIC, growth had to be inhibited in at least two cultures of the triplicate. The incubation temperature at all stages was 37°C except for X. campestris that was cultivated at 28°C [4].

The subject of the next assay is Escherichia coli XL1. Briefly: Antibacterial activity, MIC. It is filed as cell-based. Conditions: 24 h incubation, 37°C.
Description: as §1, §2, §3, §4, §5

For assay [2], the system named is Staphylococcus aureus ATCC 29213. Briefly: Antibacterial activity, MIC. As to conditions: 24 h incubation, 37°C; for MIC: read-out: MIC, S. aureus. It is filed as cell-based.
Description: as §1, §2, §3, §4, §5

Assay [3] concerns Xanthomonas campestris ATCC 33013. Briefly: Antibacterial activity, MIC. It is filed as cell-based. As to conditions: for MIC: read-out: MIC, X. campestris.
Description: as §1, §2, §3, §4, §5

The mark [4] stands for this setting: value in parentheses, 24 h incubation, 28°C.

Take `O=C(O)c1ccccc1Nc1ccc([N+](=O)[O-])cc1` [4′–NO2–fenH, 4′–nitrofenamic acid]: the “%DPPH-scavenging ability (DPPH%), 30 min” value in “DPPH radical scavenging” is listed as “Not active”. In the assay “DPPH radical scavenging”, the “%DPPH-scavenging ability (DPPH%), 60 min” value is listed as “Not active”. Also, in the assay on CT DNA, the “Tm of CT DNA in the presence of the compound” value (“Tm of CT DNA … of the compound” for short) stood at 83.7 °C. Also, the MIC (as a rule, the smallest concentration in the dilution series that meets the test's criterion for growth inhibition) in assay [1] (Bacillus subtilis, ATCC6633) amounted to 12.5 µg/mL; in assay [1] (Bacillus subtilis, ATCC6633, value in parentheses) it was 48 µM; in the assay on Escherichia coli XL1 (Escherichia coli, XL1) it was 25 µg/mL; in the assay with Escherichia coli XL1 (Escherichia coli, XL1, value in parentheses), 97 µM; in assay [2] (Staphylococcus aureus, ATCC29213), 25 µg/mL; in assay [2] (Staphylococcus aureus, ATCC29213, value in parentheses), 97 µM. Also, the MIC in assay [3] (Xanthomonas campestris, ATCC33013, 24 h) is 25 µg/mL; in assay [3] (Xanthomonas campestris, ATCC33013, value in parentheses, 24 h incubation, 28°C) it was 97 µM.
Consider `CO.CO.CO.CO.O=C([O-])c1ccccc1Nc1ccc([N+](=O)[O-])cc1.O=C([O-])c1ccccc1Nc1ccc([N+](=O)[O-])cc1.[Co+2]` [Complex 1, [Co(4′–NO2–fen)2(MeOH)4]], for which the “%DPPH-scavenging ability (DPPH%), 30 min” value in the assay “DPPH radical scavenging” is given as “Not active”. For the same compound, in the assay “DPPH radical scavenging”, the “%DPPH-scavenging ability (DPPH%), 60 min” value was “Not active”. In addition, the “Tm of CT DNA … of the compound” value with CT DNA came out at 83.7 °C. Further, the “MIC, B. subtilis” value in assay [1] is 12.5 µg/mL. In addition, the MIC is listed as 18 µM in assay [1] (value in parentheses), > 71 µM with Escherichia coli XL1 (value in parentheses), 18 µM in assay [2] (value in parentheses) and > 71 µM in assay [3] (setting [4]). For the same compound, the “MIC, E. coli” value with Escherichia coli XL1 was > 50 µg/mL. In assay [2], the “MIC, S. aureus” value came out at 12.5 µg/mL. Moreover, the “MIC, X. campestris” value in assay [3] (24 h incubation, 28°C) is > 50 µg/mL.
As for `O=C([O-])c1ccccc1Nc1ccc([N+](=O)[O-])cc1.O=C([O-])c1ccccc1Nc1ccc([N+](=O)[O-])cc1.[Co+2].c1ccc(Nc2ccccn2)nc1` [Complex 2, [Co(4′–NO2–fen)2(bipyam)]], in the assay “DPPH radical scavenging”, the “%DPPH-scavenging ability (DPPH%), 30 min” value is recorded as “Not active” and the “%DPPH-scavenging ability (DPPH%), 60 min” value is recorded as “Not active”. Further, in the assay on CT DNA, the “Tm of CT DNA … of the compound” value turned out to be 74.5 °C and the “ΔTm of CT DNA” value was “negative”. Moreover, in assay [1], the “MIC, B. subtilis” value is 25 µg/mL. The MIC in assay [1] (value in parentheses) was 34 µM. Besides, the “MIC, E. coli” value in the assay on Escherichia coli XL1 was > 50 µg/mL. Besides, the MIC in the assay with Escherichia coli XL1 (value in parentheses) was > 67 µM. Further, in assay [2], the “MIC, S. aureus” value was > 50 µg/mL. The MIC in assay [2] (value in parentheses) is reported as > 67 µM. In addition, the “MIC, X. campestris” value in assay [3] (24 h incubation, 28°C) turned out to be 25 µg/mL.
On to `O=C([O-])c1ccccc1Nc1ccc([N+](=O)[O-])cc1.O=C([O-])c1ccccc1Nc1ccc([N+](=O)[O-])cc1.[Co+2].c1cnc2c(c1)ccc1cccnc12` [Complex 3, [Co(4′–NO2–fen)2(phen)]], for which the “%DPPH-scavenging ability (DPPH%), 30 min” value in “DPPH radical scavenging” is recorded as “Not active”. In addition, the “%DPPH-scavenging ability (DPPH%), 60 min” value in the assay “DPPH radical scavenging” was “Not active”. Moreover, the “Tm of CT DNA … of the compound” value in the assay with CT DNA was 84.7 °C. Besides, the “MIC, B. subtilis” value in assay [1] is 25 µg/mL. Moreover, the MIC (in assay [1] (value in parentheses); with Escherichia coli XL1 (value in parentheses); in assay [2] (value in parentheses); in assay [3] (setting [4])) was 33 µM throughout. Moreover, the “MIC, E. coli” value against Escherichia coli XL1 is 25 µg/mL. Besides, the “MIC, S. aureus” value in assay [2] was found to be 25 µg/mL. Moreover, the “MIC, X. campestris” value in assay [3] (24 h incubation, 28°C) was 25 µg/mL.
`C[O-].C[O-].Cc1ccc2ccc3ccc(C)nc3c2n1.Cc1ccc2ccc3ccc(C)nc3c2n1.O=C([O-])c1ccccc1Nc1ccc([N+](=O)[O-])cc1.O=C([O-])c1ccccc1Nc1ccc([N+](=O)[O-])cc1.[Co+2].[Co+2]` [Complex 4, [Co2(4′–NO2–fen)2(μ–CH3O)2(neoc)2]]: in the assay “DPPH radical scavenging”, the “%DPPH-scavenging ability (DPPH%), 30 min” value was “Not active”. The “%DPPH-scavenging ability (DPPH%), 60 min” value in the assay “DPPH radical scavenging” was “Not active”. In the assay with CT DNA, the “Tm of CT DNA … of the compound” value amounted to 73.9 °C. Moreover, the “ΔTm of CT DNA” value in the assay with CT DNA was “negative”. In assay [1], the “MIC, B. subtilis” value came to 12.5 µg/mL. Besides, the MIC in assay [1] (value in parentheses) is 11 µM; in the assay with Escherichia coli XL1 (value in parentheses), > 45 µM; in assay [2] (value in parentheses), 11 µM; in assay [3] (setting [4]), 11 µM. The “MIC, E. coli” value in the assay with Escherichia coli XL1 is > 50 µg/mL. In addition, the “MIC, S. aureus” value in assay [2] worked out at 12.5 µg/mL. Moreover, the “MIC, X. campestris” value in assay [3] (24 h incubation, 28°C) came out at 12.5 µg/mL.
